The text below walks through data of BindingDB's records for doi:10.1021/jm00100a018 (1992).

The nature of experiment [1]: Concentration tested in vitro to inhibit PAF-induced maximum aggregation (PAF-Antagonistic activity) by 50%.
Assay in experiment [2]: as above
This is another data set of the same source.

pIC50: −log10 of the molar value. Structures can show the parent of a compound that is named as a salt.

On to `CC(C(=O)N1CCN(C(C#N)c2cccnc2)CC1)c1ccccc1` (centres undefined) [[4-(2-Phenyl-propionyl)-piperazin-1-yl]-pyridin-3-yl-acetonitrile; dihydrochloride], for which the pIC50 in experiment [1] is 7.68. Still for that read-out and setting: under `N#CC(c1ccncc1)N1CCN(C(=O)CC(c2ccccc2)c2ccccc2)CC1` (centres undefined) [[4-(3,3-Diphenyl-propionyl)-piperazin-1-yl]-pyridin-4-yl-acetonitrile; dihydrochloride] stands 7.29; under `N#CC(c1cccnc1)N1CCN(C(=O)CCc2ccccc2)CC1` (centres undefined) [[4-(3-Phenyl-propionyl)-piperazin-1-yl]-pyridin-3-yl-acetonitrile; dihydrochloride; hydrate], 6.28. Regarding `N#CC(c1cccnc1)N1CCN(C(=O)c2ccc3ccccc3c2)CC1` (centres undefined) [[4-(Naphthalene-2-carbonyl)-piperazin-1-yl]-pyridin-3-yl-acetonitrile; dihydrochloride], the pIC50 in experiment [2] was 4.60.
